Data: paper PMC3575409, “Identification of a Novel Protein-Protein Interaction Motif Mediating Interaction of GPCR-Associated Sorting Proteins with G Protein-Coupled Receptors” (PLoS ONE, 2013)
Entries after “also recorded” stand apart in the source; their conditions may differ.

Columns and labels:
[1] = system: interaction between GASP-2 and GST-fused ADRB1 C-tail; assay: GST-pull down competition, GASP-2 / ADRB1 C-tail; type: binding
Description: (§1) GST-fusion proteins were immobilized on glutathione-coupled Sepharose beads (GE Healthcare) for 1 h at 4°C and incubated with [^35S]-labelled in vitro translated GASP proteins or their truncated or mutated forms in ice-cold binding buffer containing: 20 mM Tris-HCl pH 7.4, 150 mM NaCl, 1 mM EDTA, 1 mM DTT, 10% glycerol and 1% Triton X-100. The mixture was incubated for 1 h at 4°C with gentle rocking. The beads were washed five times with the same ice-cold buffer, resuspended in 30 µl SDS-PAGE sample buffer, incubated 10 min at 65°C, and pelleted for 60 s at 3000 g. The supernatants were then analyzed by SDS-PAGE, the gels were stained with Coomassie blue to visualize GST-fusion proteins, dried and analyzed using a Phosphor-imager (Personal Molecular Imager FX, Biorad) to visualize [^35S]-labelled GASPs. Quantification was performed with the Quantity One software (Biorad). GST-pull down quantification data were analyzed using GraphPad Prism 4.03 (GraphPad Software). Quantifications presented are means of at least three independent experiments.
(§2) GASP peptide or its corresponding scrambled version was incubated with GST-fused proteins and [^35S]-labelled GASPs and the binding was analyzed as described for the GST-pull down assay. […]

[2] = system: interaction between GASP-1 and GST-fused ADRB1 C-tail; assay: GST-pull down competition, GASP-1 / ADRB1 C-tail; type: binding; settings: 150 µM peptide
Description: as §1, §2

[3] = system: interaction between GASP-7 and GST-fused ADRB1 C-tail; assay: GST-pull down competition, GASP-7 / ADRB1 C-tail; type: binding; settings: 150 µM peptide
Description: as §1, §2

[4] = biological target: T1, binding of full-length ADRB2 to the central domain of GASP-1 (Homo sapiens, UniProt P07550); assay: SPR competition, ADRB2 / central domain of GASP-1; settings: 1.1 µM ADRB2, GASP peptide 250 µM, control peptide up to 250 µM
T1 construct: Both ADRB2 and CNR2 full-length receptors were produced in P. pastoris and purified as previously described; implied only by the HisTrap purification; made in house; host or cells: ADRB2: Pichia pastoris; GST-GASP-1(380-1073): E. coli BL21
Description: (§3) The human ADRB2 and CNR2 receptors were produced using the P. pastoris expression system as previously described, [16]. After methanol-induced receptor expression, cells were washed with PBS pH 7.0 and resuspended in ice-cold buffer A (50 mM Tris-HCl pH 7.4, 500 mM NaCl, 10% glycerol, 5 mM EDTA, 1 mM PMSF, 2 mM DDT). Cells were then lysed with two cycles of 20 s shaking and 20 s cooling on ice using 0.5 mm glass beads in a FastPrep 24 device. Unbroken cells and cell debris were removed by centrifugation (3000 g, 5 min, 4°C) and the membrane fraction from the supernatant was pelleted by ultracentrifugation (100,000 g, 45 min, 4°C). Membranes were resuspended in buffer B (50 mM Tris-HCl pH 7.4, 500 mM NaCl, 10% glycerol, 1 mM PMSF, 2 mM DTT) using a Dounce homogenizer, and then successively washed with urea (buffer B with 4 M urea) and NaOH (buffer B with 10 mM NaOH), and ultracentrifuged (100,000 g, 45 min, 4°C). Finally membranes were resuspended in buffer B and quantified with the bicinchoninic acid (BCA) method (Pierce). […]
(§4) The binding curves were double referenced by (i) subtraction of the signal from the GST captured flow cell from the signal of the flow cell with captured central domain of GASP-1 and (ii) subtraction of the appropriate blank injection from the receptor injections with or without peptide. […] Endpoint responses were read 20 s after injection end. […]

[5] = biological target: T2, binding of full-length CNR2 to the central domain of GASP-1 (Homo sapiens, UniProt P34972); assay: SPR competition, CNR2 / central domain of GASP-1; settings: 0.30 µM CNR2, GASP peptide 250 µM, control peptide up to 250 µM
T2 construct: Both ADRB2 and CNR2 full-length receptors were produced in P. pastoris and purified as previously described; implied only by the HisTrap purification; made in house; host or cells: CNR2: Pichia pastoris; GST-GASP-1(380-1073): E. coli BL21
Description: as §3, §4

T2 sequence (P34972 whole entry, the tested form may be a part): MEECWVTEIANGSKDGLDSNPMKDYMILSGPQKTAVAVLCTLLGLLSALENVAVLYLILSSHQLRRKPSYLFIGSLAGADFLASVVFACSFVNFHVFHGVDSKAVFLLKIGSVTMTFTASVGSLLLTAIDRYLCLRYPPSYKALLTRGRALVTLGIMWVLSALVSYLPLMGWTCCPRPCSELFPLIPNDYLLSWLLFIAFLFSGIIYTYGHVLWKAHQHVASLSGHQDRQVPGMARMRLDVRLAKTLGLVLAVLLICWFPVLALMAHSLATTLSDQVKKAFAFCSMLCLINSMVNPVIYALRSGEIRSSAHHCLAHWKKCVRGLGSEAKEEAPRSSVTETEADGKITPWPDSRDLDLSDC

Sequence | effect on the interaction between GASP-2 and ADRB1 C-tail ([1]; 150 µM peptide) | effect on the interaction between GASP-2 and ADRB1 C-tail ([1]; dose-effect experiment, peptide 1 to 250 µM (scrambled: highest dose)) | effect on the interaction between GASP-1 and ADRB1 C-tail [2] | effect on the interaction between GASP-7 and ADRB1 C-tail [3] | effect on binding of ADRB2 to the central domain of GASP-1 [4] | effect on binding of CNR2 to the central domain of GASP-1 [5]
AVEWIQEVFWEKRKPEEFGIERAS [scrambled peptide, scrambled version of GASP peptide] | did not | did not affect this interaction; also recorded: no significant effect | did not | did not | – | –
RVKQEPRFEEEVIIGAAAAAEKEA [control peptide, control peptide where the conserved SWFW motif was changed to AAAA] | – | – | – | – | only had a minor effect on the interaction | only had a minor effect on the interaction
